In US9925235B2, “Tilapia piscidins for use in enhancement of wound healing” (Academia Sinica, priority 2015, dated 2018):

Assays:
TNF, IL-6, IL-1 = experiment: ELISA of serum cytokines in MRSA wound-infected mice, TP4; format: in vivo
Method: A skin region of about 1 square centimeter was removed from the abdomen of […] mice, and the wound was infected with […] of broth mix containing 10^6 cfu of MRSA alone, or together with methicillin, vancomycin, or TP4. At different days post-infection: TNF (FIG. 9A), IL-6 (FIG. 9B), and IL-1 (FIG. 9C) were detected in serum by ELISA. (r=3; n=6.) Values with different letters show significant differences (P<0.05), as determined by ANOVA.
Skin tissues were removed and fixed as previously described. In brief, the cryosections were fixed with 4% formaldehyde, and the tissue samples were stained with VEGF. IHC was analyzed by three independent investigators. Images were taken using a BX-51 microscope (Olympus, Japan). ELISA was performed as previously described.

[1] = system: Keratin 10, keratin 17 gene expression in HaCaT cells; experiment: Real-time PCR of keratin 10 and keratin 17 in HaCaT cells; format: cell-based, human; conditions: TP4 6.25 μg/ml, 48 h
Method: In FIG. 6A-6C, HaCaT cells were treated with different doses of TP4 for 48 h, and cell viability was measured by neutral red, LDH, and MTT assays (r=3; n=6). In FIGS. 6D and 6E, thee experimental HaCaT cells were treated with TP4 (6.25 μg/ml), while control cells were untreated. After 48 h, total RNA was isolated and reverse transcribed for use in real-time qPCR analysis. Six replicate wells were analyzed per assay. Results represent the mean±SEM from three independent experiments. (Student's t-test: *, P<0.05; **, P<0.01, n.s.: not significant).
Total RNA was isolated from HaCaT and Hs-68 cells, and purified using a Qiagen RNeasy kit. Reverse transcription into cDNA was performed with an iScript cDNA Synthesis Kit (BIO-RAD, USA) according to the manufacturer's recommendations. […] Quantitative PCR was performed under the following conditions: 40 cycles of 1 min at 95° C., 30 s at 55° C., and 1 min at 72° C. The threshold cycle number (Ct) was calculated with BIO-RAD software. Relative transcript quantities were calculated using the ΔCt method with GAPDH as the internal reference gene. ΔCt is the difference in the threshold cycles of messenger (m)RNA for selected genes relative to those of GAPDH mRNA. […]

[2] = system: Hs-68 human foreskin fibroblast cell line; format: cell-based
Method: An MRSA strain commonly associated with human wound infections was selected to generate a polymicrobial solution. The MRSA strain is a clinical isolate from stool obtained from Taipei City Hospital (Heping Fuyou branch). The strain was identified by routine laboratory methods and stored in 20% (vol/vol) glycerol at −80° C. Tryptic Soy Broth (TSB) was used as the culture medium. HaCaT human keratinocyte cell line and Hs-68 human foreskin fibroblast cell line were grown in DMEM containing 10% (v/v) FBS, 0.37% (w/v) NaHCO3, penicillin (100 unit/ml), streptomycin (100 μg/ml), 0.1 mM NEAA, and 1 mM sodium pyruvate at 37° C. in a humidified incubator under 5% CO2 and 95% air. The cells were harvested at ca. 90% confluence (ca. 10^6 cells/10-cm dish). Balb/c female mice were used for the experiments. All mice were housed in cages under specific pathogen-free conditions, and given water and standard laboratory chow ad libitum during the experiments. All animal handing procedures were in accordance with National Taiwan Ocean University (NTOU) guidelines. All procedures were approved by the Animal Care and Use Committee of NTOU.
Cells were cultured at a density of 5×10^4 cells per well in flat-bottomed 96-well plates. […] Cell proliferation was measured by neutral red, LDH, and MTT assay, according to the manufacturer's instructions. […]

[3] = serum, 3 days after treatment, vs positive controls

Substance: Tilapia piscidin 4 (FIHHIIGGLFSAGKAIHRLIRRRRR; listed as Oreochromis niloticus) [TP4]
- IL-1 (TNF, IL-6, IL-1; TP4-treated wounds vs control wounds): statistically significant enhancement
- induction of IL-6 (TNF, IL-6, IL-1; [3]): decreased induction
- induction of TNF (TNF, IL-6, IL-1; [3]): decreased induction
- gene expression of keratin 10 [1]: significantly increased
- gene expression of keratin 17 [1]: did not affect
- cytotoxic effects [2]: did not exhibit cytotoxic effects
- cell proliferation ([2]; Hs-68 cells, low doses, 48 h): significantly increased
